Measured values from publication PMC8364686, “Safety, tolerability, pharmacokinetics and pharmacodynamics of single oral doses of BI 187004, an inhibitor of 11beta-hydroxysteroid dehydrogenase-1, in healthy male volunteers with overweight or obesity” (Clinical Diabetes and Endocrinology, 2021).

Experiment: Plasma pharmacokinetics of BI 187004 after single oral doses (LC–MS/MS)
Details: male, human, plasma, po; for concentration at 10 h: planned time 10 h; for concentration at 12 h: planned time 12 h; for concentration at 36 h: planned time 36 h; for concentration at 48 h: planned time 48 h; for concentration at 72 h: planned time 72 h; for concentration at 96 h: planned time 96 h; for concentration at 0.5 h: planned time 0.5 h; for concentration at 1 h: planned time 1 h; for concentration at 1.5 h: planned time 1.5 h; for concentration at 2 h: planned time 2 h; for concentration at 2.5 h: planned time 2.5 h; for concentration at 3 h: planned time 3 h; for concentration at 4 h: planned time 4 h; for concentration at 5 h: planned time 5 h; for concentration at 6 h: planned time 6 h; for concentration at 8 h: planned time 8 h
[1] = 40 mg, BI 187004 plasma concentrations, 40 mg single oral, Max
[2] = 40 mg, BI 187004 plasma concentrations, 40 mg single oral, Mean
[3] = 40 mg, BI 187004 plasma concentrations, 40 mg single oral, Median
[4] = 40 mg, BI 187004 plasma concentrations, 40 mg single oral, Min
[5] = 40 mg, BI 187004 plasma concentrations, 40 mg single oral, gMean
[6] = 80 mg, BI 187004 plasma concentrations, 80 mg single oral, Max
[7] = 80 mg, BI 187004 plasma concentrations, 80 mg single oral, Mean
[8] = 80 mg, BI 187004 plasma concentrations, 80 mg single oral, Median
[9] = 80 mg, BI 187004 plasma concentrations, 80 mg single oral, Min
[10] = 80 mg, BI 187004 plasma concentrations, 80 mg single oral, gMean

Work on `N#Cc1ccc2c(c1)[C@H]1CCCN(C(=O)c3ccc4[nH]cnc4c3)[C@H]1C2` [BI 187004] yielded a concentration at 10 h [1] of 1140 nM, a concentration at 10 h [2] of 825 nM and a concentration at 10 h [3] of 815 nM. It also gave a concentration at 10 h [4] of 467 nM, a concentration at 10 h [5] of 796 nM and a concentration at 12 h [1] of 984 nM. For the same molecule, the concentration at 12 h [2] was 683 nM, the concentration at 12 h [3] was 690 nM and the concentration at 12 h [4] was 359 nM. For the same molecule, the concentration at 12 h [5] was 650 nM, the concentration at 24 h (40 mg, BI 187004 plasma concentrations, 40 mg single oral, planned time 24 h, Max) was 625 nM and the concentration at 24 h (40 mg, BI 187004 plasma concentrations, 40 mg single oral, planned time 24 h, Mean) was 353 nM. It also gave a concentration at 24 h (40 mg, BI 187004 plasma concentrations, 40 mg single oral, planned time 24 h, Median) of 335 nM, a concentration at 24 h (40 mg, BI 187004 plasma concentrations, 40 mg single oral, planned time 24 h, Min) of 169 nM and a concentration at 24 h (40 mg, BI 187004 plasma concentrations, 40 mg single oral, planned time 24 h, gMean) of 321 nM. For the same molecule, the concentration at 36 h [1] was 377 nM, the concentration at 36 h [2] was 163 nM and the concentration at 36 h [3] was 119 nM. It also gave a concentration at 36 h [4] of 51.5 nM, a concentration at 36 h [5] of 129 nM and a concentration at 48 h [1] of 234 nM. For the same molecule, the concentration at 48 h [2] was 95.6 nM, the concentration at 48 h [3] was 66.2 nM and the concentration at 48 h [4] was 30.8 nM. For the same molecule, the concentration at 48 h [5] was 73 nM, the concentration at 72 h [1] was 83.4 nM and the concentration at 72 h [2] was 32 nM. For the same molecule, the concentration at 72 h [3] was 22.1 nM, the concentration at 72 h [4] was 8.48 nM and the concentration at 72 h [5] was 24.3 nM. It also gave a concentration at 96 h [1] of 41.4 nM, a concentration at 96 h [2] of 15.5 nM and a concentration at 96 h [3] of 11.1 nM. The concentration at 96 h [4] was 5.05 nM, the concentration at 96 h [5] was 12.2 nM and the concentration at 24 h (40 mg, C24 gMean (%gCV), 40 mg single oral dose) was 321 nM. It also gave an AUC(0-inf) (80 mg) of 51.1 µM·h, an AUC(0-t) (80 mg) of 43.1 µM·h and a Cmax (80 mg) of 2460 nM. It also gave a Tmax (80 mg) of 2.25 h, a Vd/F (80 mg) of 113 L and a half-life (80 mg) of 17.1 h. It also gave a concentration at 0.5 h [6] of 4480 nM, a concentration at 0.5 h [7] of 1780 nM and a concentration at 0.5 h [8] of 1020 nM. For the same molecule, the concentration at 0.5 h [9] was 304 nM, the concentration at 0.5 h [10] was 1150 nM and the concentration at 1 h [6] was 4770 nM. It also gave a concentration at 1 h [7] of 2490 nM, a concentration at 1 h [8] of 2300 nM and a concentration at 1 h [9] of 771 nM. For the same molecule, the concentration at 1 h [10] was 2120 nM, the concentration at 1.5 h [6] was 4150 nM and the concentration at 1.5 h [7] was 2500 nM. It also gave a concentration at 1.5 h [8] of 2540 nM, a concentration at 1.5 h [9] of 958 nM and a concentration at 1.5 h [10] of 2220 nM. It also gave a concentration at 2 h [6] of 3590 nM, a concentration at 2 h [7] of 2330 nM and a concentration at 2 h [8] of 2400 nM. The concentration at 2 h [9] was 1000 nM, the concentration at 2 h [10] was 2130 nM and the concentration at 2.5 h [6] was 3200 nM. The concentration at 2.5 h [7] was 2350 nM, the concentration at 2.5 h [8] was 2650 nM and the concentration at 2.5 h [9] was 1200 nM. For the same molecule, the concentration at 2.5 h [10] was 2200 nM, the concentration at 3 h [6] was 3340 nM and the concentration at 3 h [7] was 2240 nM. For the same molecule, the concentration at 3 h [8] was 2470 nM, the concentration at 3 h [9] was 1050 nM and the concentration at 3 h [10] was 2070 nM. It also gave a concentration at 4 h [6] of 3200 nM, a concentration at 4 h [7] of 2200 nM and a concentration at 4 h [8] of 2460 nM. For the same molecule, the concentration at 4 h [9] was 936 nM, the concentration at 4 h [10] was 2020 nM and the concentration at 5 h [6] was 3210 nM. For the same molecule, the concentration at 5 h [7] was 1980 nM, the concentration at 5 h [8] was 2040 nM and the concentration at 5 h [9] was 905 nM. It also gave a concentration at 5 h [10] of 1840 nM, a concentration at 6 h [6] of 2460 nM and a concentration at 6 h [7] of 1740 nM. The concentration at 6 h [8] was 1870 nM, the concentration at 6 h [9] was 930 nM and the concentration at 6 h [10] was 1650 nM. It also gave a concentration at 8 h [6] of 2840 nM, a concentration at 8 h [7] of 1820 nM and a concentration at 8 h [8] of 1690 nM. The concentration at 8 h [9] was 1100 nM, the concentration at 8 h [10] was 1740 nM and the concentration at 10 h [6] was 2570 nM. It also gave a concentration at 10 h [7] of 1600 nM, a concentration at 10 h [8] of 1460 nM and a concentration at 10 h [9] of 1040 nM. For the same molecule, the concentration at 10 h [10] was 1530 nM, the concentration at 12 h [6] was 2210 nM and the concentration at 12 h [7] was 1380 nM. For the same molecule, the concentration at 12 h [8] was 1210 nM, the concentration at 12 h [9] was 959 nM and the concentration at 12 h [10] was 1320 nM. The concentration at 24 h (80 mg, BI 187004 plasma concentrations, 80 mg single oral, planned time 24 h, Max) was 1560 nM and the concentration at 24 h (80 mg, BI 187004 plasma concentrations, 80 mg single oral, planned time 24 h, Mean) was 927 nM.
